Experimental data reported in patent US9187458B2, “Cyanoquinoline derivatives” (Tianjin Hemay Bio-Tech Co., LTD., priority 2010, dated 2015).
Counter-ions that a name gives are not always drawn.

Key:
NCI-H460 cells = assay: NCI-H460 Cell Growth Inhibition Test (MTT Assay); assay type: cell-based; conditions: Homo sapiens, 72 h incubation
Method: NCI-H460 Cell Growth Inhibition Test (MTT Assay)
1. Cell strains: NCI-H460 (human large cell lung cancer cell strains);
(§1) 1. A plate (10 cm) of cells in logarithmic growth phase normally cultured was collected;
(§2) 2. The culture solution was sucked out. The plate was washed with 5 ml of PBS 1-2 times;
3. PBS was sucked out. 2 ml of 0.25% pancreatin was added to infiltrate the cells for 1 min;
4. The pancreatin was sucked out. The culture plate was placed in an incubator. Digestion was carried out for about 2 min at 37° C.;
(§3) 5. 4 ml of complete culture solution was added to the culture plate to stop the digestion. The cells were carefully scoured with micropipette (1 ml) to give a uniform cell suspension. The suspension was implanted into a 96-well cell culture plate by 2500 cells/100 μl per well. The culture plate was incubated overnight under 5% CO2 at 37° C. In day 2, 100 μl of culture solution comprising a compound was added in each well, and further incubated for 72 h under 5% CO2 at 37° C.
(§4) 6. The culture solution was sucked out;
(§5) 7. 100 μl of serum-free culture solution containing 0.5 mg/ml MTT was added in each well, and incubated for 3 h;
(§6) 8. The culture solution was carefully sucked out;
9. 100 μl of DMSO was added in each well and vibrated to dissolve;
(§7) 10. OD values were determined at 490 nM.
(§8) 1. Calculation of Relative Inhibition Ratio The inhibition ratio of a compound on cell growth=(PC−n)/(PC−NC)×100%
(§9) IC50: Concentration of a compound where inhibition ratio was 50%. IC50 values were fitted with Origin7.5.

EGFR-TK = biological target: T1, EGFR-TK (Homo sapiens, UniProt P00533); assay: Inhibition Test on EGFR-TK (ELISA, PGT substrate); assay type: biochemical; conditions: 20 min at room temperature, read-out: Inhibition Activity (EC50) on EGFR-TK phosphorylation
T1 construct: EGFR-TK: intracellular epidermal growth factor receptor phosphorylase
Method: Inhibition Test on EGFR-TK
1. 2 mg/ml of PGT was diluted with PBS to 0.2 mg/ml. The resulting solution was added into elisa plate by 50 μl per well. The plate was placed in a refrigerator at 4° C. and coated overnight.
2. The coating solution was discarded to stop coating. The plate was washed three times with PBS, and then beaten to dryness.
3. The elisa plate was placed in a refrigerator at 4° C., drained out and stood for 2h.
4. The mother liquid of aqueous solution of each compound was diluted with double distilled water to four folds, i.e. a desirable concentration. Then, the compound was diluted and added in the corresponding elisa well by 25 μl/well.
5. […] of ATP solution was diluted with double distilled water to 50 folds and then sufficiently mixed. The resulting solution was separately added in each elisa well by 25 μl per well (except for the negative control).
6. EGFR kinase was diluted with 2×TKB to 800 folds. The solution was added in elisa well with 50 μl per well. Then, the enzyme reaction began. The elisa plate was immediately placed on a micro-oscillator and shaked to react for 20 min at the room temperature.
7. 2% of SDS was added in the elisa well to stop the reaction by adding 100 μl of SDS into each well. The solution was sufficiently mixed on the micro-oscillator to sufficiently mix for about 5 min.
8. The reaction solution was sucked out. The plate was washed four times with PBST. After the plate was beaten to dryness, 0.25 μg/ml of mice anti-phosphorylation tyrosine-HRP antibody which was diluted with blocking solution (3% solution of BSA in PBST) was added in the plate by 100 μl per well. The mixture was reacted for 30 min at the room temperature.
9. The antibody reaction solution was sucked out. The plate was washed four times with PBST. After the plate was beated to dryness, TMB peroxidase substrate was added to the plate by 100 μl/well. The mixture reacted in the dark for 15 min at the room temperature.
10. 100 μl of 2N H2SO4 was added in the plate to stop the chromogenic reaction. After the bubbles were cleansed, OD values were determined in ELIASA at 450 nm.
11. Formula for calculating inhibition percentage: […]

A431 cells = assay: A431 Cell Growth Inhibition Test (MTT Assay); assay type: cell-based, human; conditions: Homo sapiens, A-431, 68 h, compound 1 μM, 68 h incubation, read-out: Growth Inhibition Ratio (%)
Method: A431 Cell Growth Inhibition Test (MTT Assay)
1. Cell strains: A431 (human epithelial […] cell strains);
Culture medium: 45% DMEM, 45% F12+10% FBS;
as §1, §2
3. PBS was sucked out, and 2 ml of 0.25% pancreatin was added to infiltrate the cells for 1 min;
4. The pancreatin was sucked out, and the culture plate was placed in an incubator. Digestion was carried out for about 15 min at 37° C.;
as §3, with “added in” for “added to”, “comprising the” for “comprising a”, “for 68” for “for 72”
as §4
7. 100 μl of serum-free culture solution containing 0.5 mg/ml MTT was added in each well, and incubated for 4 h;
as §6
9. 100 μl of DMSO was added into each well and vibrated to dissolve;
as §7, §8
IC50: concentration of a compound where inhibition ratio was 50%. IC50 values were fitted with Origin7.5.

NCI-H1650 cells = assay: NCI-H1650 Cell Growth Inhibition Test (SRB Assay); assay type: cell-based; conditions: Homo sapiens, 72 h incubation
Method: NCI-H1650 Cell Growth Inhibition Test (SRB Assay)
1. Cell strains: NCI-H1650 (human non-small cell lung cancer cell strains);
2. SRB, 0.4% (w/v) working solution was formulated with 1% glacial acetic acid and reserved at 4° C.; antitumor compounds; DMSO
as §1
2. The culture solution was sucked out. The plate was washed with 5 mL of PBS 1-2 times;
3. 1.5 mL of 0.25% pancreatin was added to the plate to infiltrate the cells;
4. The pancreatin was sucked out. The culture plate was placed in an incubator. Digestion was carried out for about 3 min at 37° C.;
5. 4 mL of complete culture solution was added to the culture plate to stop the digestion. The cells were carefully scoured with micropipette (1 ml) to give a uniform single cell suspension. The suspensin was implanted into a 96-well cell culture plate by 6000 cells/100 μl per well. The culture plate was incubated overnight under 5% CO2 at 37° C. In day 2, 100 μl of culture solution comprising a compound was added in each well, and further incubated for 72 h under 5% CO2 at 37° C.;
(§10) 6. The culture solution was sucked out. 100 uL of TCA fixed cells which were diluted to 10% were added to each well. The plate was kept in a refrigerator for 1 h at 4° C.
(§11) 7. TCA stationary liquid was sucked out. Each well was washed with 150 μL of ddH2O five times;
(§12) 8. After the stationary liquid was cleansed, the plate was dried in the air at the room temperature;
(§13) 9. 60 μL of SRB staining solution was added in each well. The well was stained for 15 min at the room temperature;
(§14) 10. The SRB staining solution was sucked out. Each well was washed with 150 μL of 1% glacial acetic acid five times;
(§15) 11. After the SRB staining solution was cleansed, the plate was dried in the air at the room temperature;
12. 100 μL of 10 mM Tris was added in each well, the plate was vibrated to dissolve out SRB;
(§16) 13. OD values were determined at 570 nM.
as §8, §9

AsPC-1 cells = assay: AsPC-1 Cell Growth Inhibition Test (MTT Assay); assay type: cell-based; conditions: Homo sapiens, ASPC1, 72 h incubation
Method: AsPC-1 Cell Growth Inhibition Test (MTT Assay)
Cell strains: AsPC-1 (human pancreatic cancer cell strains);
as §1, §2
(§17) 3. PBS was sucked out. 1.5 ml of 0.25% pancreatin was added to infiltrate the cells for 1 min;
4. The pancreatin was sucked out. The culture plate was placed in an incubator. Digestion was carried out for about 7.5 min at 37° C.;
as §3, with “4.5” for “4”, “8000” for “2500”
as §4, §5, §6
(§18) 9. 100 μl of DMSO was added in each welland vibrated to dissolve;
as §7, §8, §9

CCRF-CEM/T cells = assay: CCRF-CEM/T Cell Growth Inhibition Test (MTT Assay); assay type: cell-based; conditions: Homo sapiens, CCRF-CEM/T cells (resistant to paclitaxel), 72 h incubation
Method: CCRF-CEM/T Cell Growth Inhibition Test (MTT Assay)
Cell strains: CCRF-CEM/T (human acute lymphocytic cell leukemia cells);
triple lysate solution: 10% SDS, 5% isobutanol, 0.012M HCl.
1. Cells were cultured to exponential phase. The cells were suspension cells;
2. The cells were collected by centrifuge. The resulting cells were resuspended in a complete culture medium to a desired concentration. The cells suspension was implanted into a 96-well cell culture plate by 20000 cells per well. A compound was added in the wellsuch that the final volume of the system was 120 μl. The system was further incubated for 72 h under 5% CO2 at 37° C.
7. 30 μl of serum-free culture solution containing 2.5 mg/ml MTT was added in each well, and incubated for 3 h;
8. 150 μl of triple lysate solution was added in each well and placed to dissolve at the room temperature;
9. OD values were determined at 570 nM.
as §8, §9

Fadu cells = assay: Fadu Cell Growth Inhibition Test (MTT Assay); assay type: cell-based; conditions: Homo sapiens, 72 h incubation
Method: Fadu Cell Growth Inhibition Test (MTT Assay)
Cell strains: Fudu (human head and neck cancer cell strains);
Culture medium: 90% EMEM+10% FBS;
as §1, §2, §17
4. The pancreatin was sucked out. The culture plate was placed in an incubator. Digestion was carried out for about 5 min at 37° C.;
as §3, with “4.5” for “4”, “6000” for “2500”
as §4, §5, §6, §18, §7, §8, §9

BT-474 cells = assay: BT-474 Cell Growth Inhibition Test (SRB Assay); assay type: cell-based, human; conditions: Homo sapiens, BT-474, 70 h, compound 1 μM, 70 h incubation, read-out: Growth Inhibition Ratio (%)
Method: BT-474 Cell Growth Inhibition Test (SRB Assay)
1. Cell strains: BT-474 (human breast tumor cell strains);
2. SRB: available from Sigmaaldrich, goods number: S9012, lot number: 047K3751. SRB was reserved at the room temperature. 0.4% (w/v) of working solution was formulated with 1% of glacial acetic acid. The solution was reserved at the temperature of 4° C.; anti-tumor compounds; DMSO.
Culture medium (90% EMEM+10% FBS+0.1 mM NEAA, reserved at 4° C.);
1. A plate (10 cm) of cells in logarithmic growth phase normally cultured was collected. The culture solution was sucked out. The plate was washed with 5 mL of PBS 1-2 times;
2. PBS was sucked out, and […] of 0.25% pancreatin was added to infiltrate the cells for 30 s;
3. The pancreatin was sucked out. The culture plate was pleaced in an incubator. Digestion was carried out for about 5 min at 37° C.;
4. 3 mL of complete culture solution was added to the culture plate to stop the digestion. The cells were carefully scoured with micropipette (1 ml) to give a uniform single cell suspension;
5. Cell suspension was counted. The suspension was diluted to 1×10^5/ml. The resulting suspension was developed uniformly on a plate. The plate was incubated under 5% CO2 at 37° C. overnight. In day 2, 80 μL of complete culture medium was added in each well and then 20 μL of culture solution comprising a compound was added. The mixture was incubated for 70 h under 5% CO2 at 37° C.
as §10, §11, §12, §13, §14, §15
12. 100 μL of 10 mM Tris was added in each well. The plate was vibrated to dissolve out SRB;
as §16, §8, §9

T1 sequence (P00533 669-1210 limits assumed): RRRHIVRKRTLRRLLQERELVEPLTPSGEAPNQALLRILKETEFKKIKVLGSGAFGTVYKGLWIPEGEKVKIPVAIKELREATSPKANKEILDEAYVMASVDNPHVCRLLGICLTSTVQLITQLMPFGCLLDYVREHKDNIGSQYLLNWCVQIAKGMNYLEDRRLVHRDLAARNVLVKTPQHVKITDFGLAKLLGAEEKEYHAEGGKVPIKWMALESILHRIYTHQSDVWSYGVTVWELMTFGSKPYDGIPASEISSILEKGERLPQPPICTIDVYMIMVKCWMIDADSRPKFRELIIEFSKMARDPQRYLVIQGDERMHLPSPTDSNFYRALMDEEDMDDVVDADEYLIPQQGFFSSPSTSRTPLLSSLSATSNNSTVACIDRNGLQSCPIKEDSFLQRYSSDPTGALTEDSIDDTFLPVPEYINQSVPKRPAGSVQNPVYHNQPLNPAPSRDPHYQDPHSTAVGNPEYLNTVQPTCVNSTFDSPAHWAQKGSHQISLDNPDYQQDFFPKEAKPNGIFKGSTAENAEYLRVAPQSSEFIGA

Structure (SMILES): N#Cc1cnc2cc(OC3CCOC3)c(NC(=O)C=C3CCNCC3)cc2c1Nc1ccc(OCc2cccc(F)c2)c(Cl)c1 (stereo not shown) [Example 46, N-(4-(4-(3-FLUOROBENZYLOXY)-3-CHLOROPHENYLAMINO)-3-CYANO-7-(TETRAHYDROFURAN-3-YL-OXY)QUINOLIN-6-YL)-2-(PIPERIDIN-4-YLIDENE)ACETAMIDE]
- IC50 (NCI-H460 cells): 4000 nM
- EC50 (EGFR-TK): 25 nM

Structure (SMILES): CN(C)C/C=C/C(=O)Nc1cc2c(Nc3ccc(OCc4ccccn4)c(Cl)c3)c(C#N)cnc2cc1OC1CCOC1 (stereo not shown) [Example 3, (E)-N-(4-(3-CHLORO-4-(PYRIDIN-2-YL-METHOXY)PHENYLAMINO)-3-CYANO-7-(TETRAHYDROFURAN-3-YL-OXY)QUINOLIN-6-YL)-4-(DIMETHYLAMINO)-BUT-2-ENAMIDE HYDROCHLORIDE]
- inhibition at 1 µM (A431 cells): 85%
- IC50 (NCI-H1650 cells): 819 nM

Structure (SMILES): CN(C)C/C=C/C(=O)Nc1cc2c(Nc3ccc(OCc4cccc(F)c4)c(Cl)c3)c(C#N)cnc2cc1O[C@H]1CCOC1 [Example 158, (S,E)-N-(4-(4-(3-FLUOROBENZYLOXY)-3-CHLOROPHENYLAMINO)-3-CYANO-7-(TETRAHYDROFURAN-3-YL-OXY)QUINOLIN-6-YL)-4-(DIMETHYLAMINO)-BUT-2-ENAMIDE]
- IC50 (AsPC-1 cells): 440 nM
- IC50 (CCRF-CEM/T cells): 1100 nM
- IC50 (Fadu cells): 119 nM
- inhibition at 1 µM (A431 cells): 77%
- IC50 (NCI-H1650 cells): 760 nM
- inhibition at 1 µM (BT-474 cells): 82%
